The METLIN SMRT retention time set (Domingo-Almenara et al. 2019)

Test: gradient 5% acetonitrile 3 min, to 50% in 2 min, to 85% in 15 min, held 3 min, 100 µL/min
Conditions: column: Zorbax Extend-C18 2.1 x 50 mm; eluents: water / acetonitrile, 0.1% formic acid
Procedure, shortened: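 The system's dead and dwell volumes were 40 μL and 900 μL, with a Zorbax Extend-C18 column (2.1 × 50 mm, 1.8 μm) run at 100 μL/min in water and acetonitrile containing 0.1% formic acid each. Pure standards were analyzed in mixtures of ~100 molecules by HPLC–quadrupole time-of-flight mass spectrometry in positive and negative ionization mode. Retention time was assigned from computationally picked, manually inspected adduct peaks.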

RP-LC retention time [s]	Compound
609	CN(C)CCNCc1ccc(-c2ccc(Cl)cc2Cl)o1
766	O=C(Cn1c(=O)c2cc(C3CC3)nn2c2ncccc21)NCc1ccccc1Cl
765	CNC(=O)N1CC(C)Oc2ccc(C)cc21 (stereo not given)
1260	CCc1ccc(S(=O)(=O)N2CCCC2c2nc(-c3cccc(C)c3)no2)cc1 (stereo not given)
877	COc1ccc(-n2ccc(=O)c(-c3nc(-c4ccccc4Cl)no3)n2)cc1
870	Cc1nn(CC(=O)NCCC2=CCCCC2)c(=O)c2c(C)n(-c3ccccc3)nc12
838	O=C(Cc1cc(-c2ccco2)on1)Nc1ccc(F)c(F)c1F
756	CN1c2ccccc2C(=O)NC12CCN(C(=O)c1cccc(Cl)c1)CC2
652	COCCN1C(=O)Cc2ccccc2C1C(=O)NC(C)C (stereo not given)
589	Cc1nn(CCCC(=O)N2CCN(c3ccccn3)CC2)c(=O)c2cc3occc3n12
616	CCc1nc2cccnc2n1CCN1CCN(C(=O)Nc2cccc(Br)c2)CC1
754	CN(C)c1cc2c(cc1NC(=O)Cc1ccccc1Cl)n(C)c(=O)c(=O)n2C
595	CCN1C(=O)c2ccccc2S(=O)c2ccc(C(=O)N3CCN(c4ccccn4)CC3)cc21 (stereo not given)
884	N#CCc1ccc(NC(=O)C2CCCN(S(=O)(=O)Cc3ccc(F)cc3)C2)cc1 (stereo not given)
975	O=C(c1ccccn1)N1CCc2cc(-c3csc(C4CC4)n3)ccc21
895	CNC(=O)N1CCCC(c2cccc(C(=O)N3CCN(c4cccc(Cl)c4)CC3)c2)C1 (stereo not given)
656	COc1cc(OC)cc(C(=O)NC(C)C(=O)Nc2nc3ccccc3[nH]2)c1 (stereo not given)
759	CCCNC(=O)C1CCCN(c2nc3ncn(CC(=O)Nc4cc(C)cc(C)c4)c(=O)c3s2)C1 (stereo not given)
724	CN(C)S(=O)(=O)c1ccc(C(=O)N2CCC3(CC2)OCCS3)cc1
714	O=C(NC1CCN(c2cc(-c3ccc(F)cc3)[nH]n2)C1)c1ccc2cc[nH]c2c1 (stereo not given)
780	CCOc1cc(CNCCc2c[nH]c3ccccc23)ccc1Oc1nnnn1-c1ccccc1
690	O=C(CN1CCC(c2nc(-c3cccs3)no2)CC1)NCc1ccccc1Cl
935	CCc1cc(=O)n(CC(=O)Nc2cc(Cl)ccc2OC)c(N2CCOCC2)n1

RP-LC retention time [s]	Compound
648	CCCn1cc(C(=O)NCCN2CCc3ccccc3C2)c2cccnc21
752	COc1ccc(C(=O)Nc2ccc3c(c2)Sc2ncccc2C(=O)N3C)cc1
607	CC(=O)N1CCc2cc(-c3ccc(C(=O)NCCN4CCCC4)cc3)ccc21
564	CC(NC(=O)c1c(O)c2sccc2[nH]c1=O)c1ccncc1 (stereo not given)
872	CCOc1ccc2ccccc2c1C(=O)NCCc1ccsc1
649	COc1ccc(-c2nc3cnccn3c2Nc2ccc(C(=O)NCC3CCCO3)cc2)cc1 (stereo not given)
903	CC(Oc1ccccc1)C(=O)N(C)CCc1noc(-c2ccccc2)n1 (stereo not given)
1060	COCCc1noc(C2Cc3ccccc3N2C(=O)Nc2ccc(C)c(C)c2)n1 (stereo not given)
1060	CCNS(=O)(=O)c1cccnc1Nc1cc(C)cc(C)c1
668	Cn1nc(C(=O)N2CCCCC2)c2c1CCN(C(=O)CCC(=O)N1CCCCCC1)C2
1170	CCc1sc(NC(=O)c2cccc(NC(=O)C(CC)CC)c2)nc1-c1ccccc1
951	O=C(CN1C(=O)CCc2cc(Br)ccc21)N1CCN(c2ccccc2F)CC1
833	Cc1cc2c(=O)n(CC(=O)Nc3ccc(Cl)cc3C)ccc2s1
1270	Cc1cc(C)c(S(=O)(=O)N2CCCC2c2nc(-c3ccc(F)cc3)no2)cc1C (stereo not given)
570	CN1CCN(C(CNS(=O)(=O)c2ccccc2F)c2ccsc2)CC1 (stereo not given)
742	CCOC(=O)Cc1ccc(NC(=O)NC2CCN(c3ccccc3)C2=O)cc1 (stereo not given)
726	CSc1ccc(NC(=O)Nc2cccc(-c3ccc(N4CCOCC4)nn3)c2)cc1
880	O=C(CSCC(=O)c1ccccc1)c1ccccc1
1210	CCOc1ccc(N(C)S(=O)(=O)c2ccsc2C(=O)NCCCc2ccccc2)cc1
592	O=C(CSc1nc2ncccc2n2cccc12)N1CCN(c2ccccn2)CC1
764	Cc1nn(-c2ccc(F)cc2)c(C)c1S(=O)(=O)N1CCC(C(=O)NC2CC2)CC1
772	CCC(C)C(NC(=O)Cc1ccc(OC)cc1Cl)C(=O)Nc1nc2ccccc2[nH]1 (stereo not given)
1080	Cc1nc(-c2cc(S(=O)(=O)NCc3ccccc3Cl)c(C)s2)cs1

RP-LC retention time [s]	Compound
674	Cc1ccc(N2N=C(C(=O)N3CCN(CC(C)C)CC3)S(=O)(=O)c3cccnc32)cc1
918	Cc1nc(-c2cccc(-c3noc(CNC(=O)c4ccccc4)n3)c2)cs1
741	CCOC(=O)C(C)Sc1nnc2n1CCN2c1ccc(OC)cc1 (stereo not given)
852	Cc1cccc(N2C(=O)NC3CC2(C)Oc2ccccc23)c1 (stereo not given)
574	Clc1ccc(Cl)c(-c2ccc(CNCC3CCNCC3)o2)c1
762	Cc1cccc(NC(=O)CN2C(=O)CCS(=O)(=O)c3ccccc32)c1
595	c1ccc([C@@H]2NCCO[C@H]2COc2ccccn2)cc1
785	COCc1nc(C2CCN(S(=O)(=O)c3ccc(C#N)cc3)C2)no1 (stereo not given)
568	CC(C)n1cnc2cc(CNC(=O)c3ccco3)ccc21
686	COc1ccc(OC)c(NC(=O)NCCc2cn(C)c3ncccc23)c1
1460	Cc1ccc(Nc2cc(C)nc(N3CCN(C(=O)Nc4cccc(C)c4)CC3)n2)cc1
589	CC(=O)N1CCN(C2=NC(=O)/C(=C\c3ccc(O)c([N+](=O)[O-])c3)S2)CC1
810	CC1CCCCN1c1ccn2c(=O)n(CC(=O)Nc3cc(F)cc(F)c3)nc2n1 (stereo not given)
936	CCc1nnc2ccc(-c3noc(-c4cccc(F)c4)n3)cn12
724	COc1ccc(-c2nc3ccccn3c2NCc2ccccc2)cc1
796	Cn1c(=O)c2cc(C(=O)N3CCN(c4ccc(F)cc4)CC3)sc2n(C)c1=O
852	COc1ccc(C)cc1NC1=NS(=O)(=O)c2ccccc21
700	O=S(=O)(NCCS(=O)(=O)N1CCc2ccccc21)c1cccnc1
710	CCc1nn2c(CNC(=O)c3ccc(F)c(Cl)c3)c(C)nc2s1
771	CC(C)(C)c1noc(-c2cccnc2-n2cnc(C(=O)NC3CCCCC3)c2)n1
736	COc1ccc(OC)c(-c2cc(C(=O)NCCn3cnc(-c4ccccc4)cc3=O)[nH]n2)c1
1270	Cc1ccc(CCNC(=O)c2cc3sccc3n2Cc2ccc(Cl)cc2)cc1
1080	O=c1c2sccc2n(Cc2nc(-c3ccc(OC(F)(F)F)cc3)no2)c(=O)n1-c1ccccc1

RP-LC retention time [s]	Compound
796	COc1cc(Cc2nc(-c3ccc4nnc(C)n4c3)no2)cc(OC)c1
690	CSc1ncccc1C(=O)N(Cc1ccsc1)Cc1ccccn1
746	O=C(Nc1nnc(C2CC(=O)N(c3ccccc3)C2)o1)c1ccc(Cl)cc1 (stereo not given)
869	CSc1cccc(NC(=O)CN2C(=O)C3CCCCN3c3ccc(C(=O)N4CCCC4)cc32)c1 (stereo not given)
1050	Cc1ccc(C)c(Cn2nc3c(S(=O)(=O)N4CCN(c5ccc(F)cc5)CC4)cccn3c2=O)c1
780	CCCCNC(=O)CSc1nnc2c3cc(-c4ccccc4)nn3ccn12
591	CNC(=O)c1cc(N2CCCC2)nc2ccc(F)cc12
719	Cc1ccc2nc(Cl)c3cc(C(=O)N4CCN(c5ccccn5)CC4)sc3c2c1
944	COc1cccc(-c2nc(-c3ccnc(N4CCOCC4)c3)no2)c1
923	COc1ccc(CC(=O)Nc2nnc(SCc3nnc(-c4ccccc4C)o3)s2)cc1
733	COc1cc(C(=O)NC(CC(C)C)C(=O)Nc2nc3ccccc3[nH]2)cc(OC)c1OC (stereo not given)
833	COc1ccc(C(C)NC(=O)c2cn3cc(Cl)ccc3n2)cc1 (stereo not given)
1120	Cc1cccc(CNC(=O)C2(C)Oc3cccnc3N(C(C)C)C2=O)c1 (stereo not given)
880	Cc1ccc(NC(=O)Cn2c(=O)n(-c3ccc(F)cc3)c3ncccc32)cc1
609	CCC1CN2C=NC(N3CCN(C(=O)c4ccc5c(c4)OCO5)CC3)=CC2=N1 (stereo not given)
902	COC(=O)c1cc2c(=O)n(Cc3ccccc3Cl)ccc2nc1C
784	Cc1cc(C)cc(N2CCn3c2nc2c3c(=O)n(CC(=O)O)c(=O)n2C)c1
1010	Fc1cccc(-n2cc(-c3noc(-c4ccc5c(c4)OCO5)n3)nn2)c1
637	CNC(=O)C1CC(=O)N(c2cccc(C)c2)C1 (stereo not given)
658	Cc1ccc(NS(=O)(=O)c2cc3n(c2)CCCNC3=O)cc1C
908	O=C(NC1CCCCC1)c1ccc2ccnc(N3CCN(c4ccc(F)cc4)CC3)c2c1
